The values below come from patent US20030225152A1, “3-(Arylamino)methylene-1, 3-dihydro-2h-indol-2-ones as kinase inhibitors” (priority 2001, published 2003).

As a reminder, the IC50 is the concentration at which inhibition is half-maximal. By inhibition is commonly meant the change of the read-out against control, counted positive when it falls.

T1 sequence (P35968 786-1356): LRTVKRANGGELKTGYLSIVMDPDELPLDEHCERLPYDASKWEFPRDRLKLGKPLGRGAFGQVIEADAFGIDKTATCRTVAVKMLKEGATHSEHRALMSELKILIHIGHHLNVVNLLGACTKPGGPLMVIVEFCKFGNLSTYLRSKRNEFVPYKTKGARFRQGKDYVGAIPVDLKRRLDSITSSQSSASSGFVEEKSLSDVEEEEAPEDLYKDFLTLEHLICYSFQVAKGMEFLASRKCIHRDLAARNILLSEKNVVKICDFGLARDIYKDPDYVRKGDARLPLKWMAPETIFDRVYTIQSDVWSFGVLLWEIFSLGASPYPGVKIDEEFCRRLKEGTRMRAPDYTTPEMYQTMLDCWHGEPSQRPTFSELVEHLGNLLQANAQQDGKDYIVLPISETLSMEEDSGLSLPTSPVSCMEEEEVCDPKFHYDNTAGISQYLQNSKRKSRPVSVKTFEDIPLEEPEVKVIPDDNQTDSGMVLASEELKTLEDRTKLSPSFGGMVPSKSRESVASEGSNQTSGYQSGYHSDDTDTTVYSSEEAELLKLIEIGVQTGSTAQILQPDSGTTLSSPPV

One assay has as its target T1, cytoplasmic domain of the human VEGF receptor (VEGFR-2) (Homo sapiens, UniProt P35968).
T1 construct: The cytoplasmic domain of the human VEGF receptor (VEGFR-2) was expressed as a Histidine-tagged fusion protein; Histidine tag
Briefly: KDR Assay. It counts as biochemical. To be noted: His-VEGFR-2; 3.6 μM ATP. On the procedure: The cytoplasmic domain of the human VEGF receptor (VEGFR-2) was expressed as a Histidine-tagged fusion protein following infection of insect cells using an engineered baculovirus. His-VEGFR-2 was purified to homogeneity, as determined by SDS-PAGE, using nickel resin chromatography. Kinase assays were performed in 96 well microtiter plates that were coated overnight with 30 μg of poly-Glu-Tyr (4:1) in 10 mM Phosphate Buffered Saline (PBS), pH 7.2-7.4. The plates were incubated with 1% BSA and then washed four times with PBS prior to starting the reaction. Reactions were carried out in 120 μL reaction volumes containing 3.6 μM ATP in kinase buffer (50 mM Hepes buffer pH 7.4, 20 mM MgCl2, 0.1 mM MnCl2 and 0.2 mM Na3VO4). Test compounds were reconstituted in 100% DMSO and added to the reaction to give a final DMSO concentration of 5%. Reactions were initiated by the addition 0.5 ng of purified protein. Following a ten minute incubation at 25° C., the reactions were washed four times with PBS containing 0.05% Tween-20. 100 μl of a monoclonal anti-phosphotyrosine antibody-peroxidase conjugate was diluted 1:10000 in PBS-Tween-20 and added to the wells for 30 minutes. Following four washes with PBS-Tween-20, 100 μl of O-phenylenediamine Dihydrochloride in Phosphate-citrate buffer, containing urea hydrogen peroxide, was added to the wells for 7 minutes as a colorimetric substrate for the peroxidase. The reaction was terminated by the addition of 100 μl of 2.5N H2SO4 to each well and read using a microplate ELISA reader set at 492 nm. IC50 values for compound inhibition were calculated directly from graphs of optical density (arbitrary units) versus compound concentration following subtraction of blank values.
In turn, `CN1CCCC(COc2ccc(NC=C3C(=O)Nc4ccc(F)cc43)cc2)C1` (stereo not drawn) [Example 282, 5-Fluoro-3-{[4-(1-methyl-piperidin-3-ylmethoxy)-phenylamino]-methylene}-1,3-dihydro-indol-2-one] registered an IC50 of 330 nM.
In turn, `O=C1Nc2ccc(F)cc2C1=CNc1ccc(CCN2CCCCC2)cc1` [Example 288, 5-Fluoro-3-{[4-(2-piperidin-1-yl-ethyl)-phenylamino]-methylene}-1,3-dihydro-indol-2-one] had an IC50 of 330 nM.

In the next assay the test system is VEGF induced increases in intracellular calcium levels in HUVEC (human umbilical vein endothelial cells). Briefly: VEGF Stimulated Ca++ Signal in vitro (FLIPR). It counts as cell-based. To be noted: 10 μM, VEGF 5 ng/mL. On the procedure:
VEGF Stimulated Ca^++ Signal in vitro
Automated FLIPR (Fluorometric Imaging Plate Reader) technology was used to screen for inhibitors of VEGF induced increases in intracellular calcium levels in fluorescent dye loaded endothelial cells. HUVEC (human umbilical vein endothelial cells) (Clonetics) were seeded in 96-well fibronectin coated black-walled plates overnight at 37° C./5%CO2. Cells were loaded with calcium indicator Fluo-4 for 45 minutes at 37° C. Cells were washed 4 times (Original Cell Wash, Labsystems) to remove extracellular dye. Test compounds were reconstituted in 100% DMSO and added to the cells to give a final DMSO concentration of 0.1%. For screening, cells were pre-incubated with test agents for 30 minutes, at a single concentration (10 μM) or at concentrations ranging from 0.01 to 10.0 μM followed by VEGF stimulation (5 ng/mL). Changes in fluorescence at 516 nm were measured simultaneously in all 96 wells using a cooled CCD camera. Data were generated by determining max-min fluorescence levels for unstimulated, stimulated, and drug treated samples. IC50 values for test compounds were calculated from % inhibition of VEGF stimulated responses in the absence of inhibitor.
With `COc1ccc(NC=C2C(=O)Nc3ccc(Cl)cc32)cc1F` [Example 105, 5-Chloro-3-[(3-flouro-4-methoxyphenylamino)-methylene]-1,3-dihydro-indol-2-one], the “VEGF Stimulated Ca^++ signal assay % inhibition @ 10 μM” value was determined as 17.50%.
The same measure, in the same setting: the value for `O=C1Nc2ccc(Cl)cc2C1=CNc1ccc2c(c1)OCO2` [Example 68, 3-[(3,4-Metylenedioxyphenylamino)-methylene]-5-chloro-1,3-dihydro-indol-2-one] was −2.50%.

The assay is the same for the next values; noted with them: Homo sapiens, 10 μM, VEGF 5 ng/mL.
For `Cc1cccc2c1C(=CNc1ccc(O)c(C(=O)O)c1)C(=O)N2` [Example 118, 2-Hydroxy-5-[(4-methyl-2-oxo-1,2-dihydro-indol-3-ylidenemethyl)-amino]-benzoic acid], the inhibition at 10 µM is -27%.
As to `O=C1Nc2ccccc2C1=CNc1ccc(O)cc1` [Example 12, 3-[(4-Hydroxy-phenylamino)-methylene]-1,3-dihydro-indol-2-one], the inhibition at 10 µM came out at 94.2%.
With `O=C1Nc2ccccc2C1=CNc1ccc(C(=O)O)cc1` [Example 86, 4-[(2-Oxo-1,2-dihydro-indol-3-ylidenemethyl)-amino]-benzoic acid], the inhibition at 10 µM is 48.5%.
Same read-out and setting: in the case of `O=C1Nc2ccccc2C1=CNc1ccc(C(F)(F)F)cc1` [Example 25, 3-[(4-Trifluoromethyl-phenylamino)-methylene]-1,3-dihydro-indol-2-one] it was -1.5%; in that of `COc1cc(NC=C2C(=O)Nc3ccc(Cl)cc32)cc(OC)c1` [Example 75, 3-[(3,5-Dimethoxyphenylamino)-methylene]-5-chloro-1,3-dihydro-indol-2-one], -18%; in that of `Cc1cccc2c1C(=CNc1ccc(OC(F)(F)F)cc1)C(=O)N2` [Example 120, 4-Methyl-3-[(4-trifluoromethoxy-phenylamino)-methylene]-1,3-dihydro-indol-2-one], 12.7%.
On the same count and under the same terms, the value for `CC(C)(C)c1ccc(NC=C2C(=O)Nc3ccc(Cl)cc32)cc1` [Example 100, 5-Chloro-3-[(4-t-butyl-phenylamino)-methylene]-1,3-dihydro-indol-2-one] was 6%; that for `O=C1Nc2ccccc2C1=CNc1cccc(C(F)(F)F)c1` [Example 22, 3-[(3-Trifluoromethyl-phenylamino)-methylene]-1,3-dihydro-indol-2-one] was 22.5%.
Consider `O=C1Nc2ccc(Cl)cc2C1=CNc1ccc(OC(F)(F)F)cc1` [Example 66, 3-[(4-Trifluoromethoxyphenylamino)-methylene]-5-chloro-1,3-dihydro-indol-2-one], for which the inhibition at 10 µM was found to be 18.5%.
Regarding `Cc1cccc2c1C(=CNc1ccc(C(N)=O)cc1)C(=O)N2` [Example 129, 4-[(4-Methyl-2-oxo-1,2-dihydro-indol-3-ylidenemethyl)-amino]-benzamide], the inhibition at 10 µM came out at 99%.
Consider `COc1cc(NC=C2C(=O)Nc3cccc(C)c32)cc(OC)c1` [Example 61, 3-[(3,5-Dimethoxy-phenylamino)-methylene]-4-methyl-1,3-dihydro-indol-2-one], for which the inhibition at 10 µM was -4.5%.
In the case of `N#CCc1ccc(NC=C2C(=O)Nc3ccccc32)cc1` [Example 30, 3-[(4-Cyanomethylphenylamino)-methylene]-1,3-dihydro-indol-2-one], the inhibition at 10 µM came to 39.5%.
Turning to `COc1ccc(NC=C2C(=O)Nc3ccccc32)cc1C(F)(F)F` [Example 55, 3-[(4-Methoxy-3-trifluoromethyl-phenylamino)-methylene]-1,3-dihydro-indol-2-one], the inhibition at 10 µM is 14.5%.
With `Cc1cccc2c1C(=CNc1ccc(C(C)(C)C)cc1)C(=O)N2` [Example 98, 3-[(4-tert-Butyl-phenylamino)-methylene]-4-methyl-1,3-dihydro-indol-2-one], the inhibition at 10 µM turned out to be 47.5%.
`CC(C)c1ccc(NC=C2C(=O)Nc3ccc(Cl)cc32)cc1` [Example 70, 3-[(4-i-Propylphenylamino)-methylene]-5-chloro-1,3-dihydro-indol-2-one]: the inhibition at 10 µM was 25%.
Regarding `CCc1ccccc1NC=C1C(=O)Nc2cccc(C)c21` [Example 127, 3-[(2-Ethyl-phenylamino)-methylene]-4-methyl-1,3-dihydro-indol-2-one], the inhibition at 10 µM was -11.8%.
For `CCOc1ccc(NC=C2C(=O)Nc3ccc(Cl)cc32)cc1` [Example 107, 5-Chloro-3-[(4-ethoxyphenylamino)-methylene]-1,3-dihydro-indol-2-one], the inhibition at 10 µM stood at 41.5%.
The same measure, in the same setting: in the case of `CCc1ccccc1NC=C1C(=O)Nc2ccccc21` [Example 9, 3-[(2-Ethyl-phenylamino)-methylene}-1,3-dihydro-indol-2-one] it was 13.5%; in that of `O=C1Nc2ccccc2C1=CNc1ccc(Cl)c(C(=O)O)c1` [Example 37, 2-Chloro-5-[(2-oxo-1,2-dihydro-indol-3-ylidenemethyl)-amino]-benzoic acid], -4%; in that of `COc1ccc(NC=C2C(=O)Nc3cccc(C)c32)cc1C(F)(F)F` [Example 121, 3-[(4-Methoxy-3-trifluoromethyl-phenylamino)-methylene]-4-methyl-1,3-dihydro-indol-2-one], 4.86%.
The same measure, in the same setting: the value for `Cc1ccc(NC=C2C(=O)Nc3ccccc32)cc1F` [Example 10, 3-[(3-Fluoro-4-methyl-phenylamino)-methylene]-1,3-dihydro-indol-2-one] was 46%; that for `O=C1Nc2ccccc2C1=CNc1ccccc1` [Example 1, 3-Phenylaminomethylene-1,3-dihydro-indol-2-one] was 92%.

Still in this assay, the particulars now being: Homo sapiens, 0.01 to 10.0 μM, VEGF 5 ng/mL.
With `CN1CCN(CCCNc2ccc(NC=C3C(=O)Nc4cc(F)ccc43)cc2)CC1` [Example 304, 6-Fluoro-3-({4-[3-(4-methyl-piperazin-1-yl)-propylamino]-phenylamino}-methylene)-1,3-dihydro-indol-2-one], the IC50 came out at 120 nM.
On to `O=C1Nc2ccccc2C1=CNc1ccc(O)cc1` [Example 12, 3-[(4-Hydroxy-phenylamino)-methylene]-1,3-dihydro-indol-2-one], for which the IC50 was determined as 1070 nM.
Take `O=C1Nc2cc(F)ccc2C1=CNc1ccc(CCCCN2CCOCC2)cc1` [Example 317, 6-Fluoro-3-{[4-(4-morpholin-4-yl-butyl)-phenylamino]-methylene}-1,3-dihydro-indol-2-one]: the half-inhibitory concentration (IC50) is 170 nM.
The same measure, in the same setting: the value for `Cc1cccc2c1C(=CNc1ccc(C(N)=O)cc1)C(=O)N2` [Example 129, 4-[(4-Methyl-2-oxo-1,2-dihydro-indol-3-ylidenemethyl)-amino]-benzamide] was 1270 nM.
For the molecule `CN1CCN(CCCNc2ccc(NC=C3C(=O)Nc4ccccc43)cc2)CC1` [Example 302, 3-({4-[3-(4-Methyl-piperazin-1-yl)-propylamino]-phenylamino}-methylene)-1,3-dihydro-indol-2-one], the IC50 stood at 710 nM.
On to `O=C1Nc2ccccc2C1=CNc1ccc(CCCCN2CCOCC2)cc1` [Example 312, 3-{[4-(4-Morpholin-4-yl-butyl)-phenylamino]-methylene}-1,3-dihydro-indol-2-one], for which the IC50 was found to be 540 nM.
For `O=C1Nc2ccc(F)cc2C1=CNc1ccc(CCCCN2CCOCC2)cc1` [Example 316, 5-Fluoro-3-{[4-(4-morpholin-4-yl-butyl)-phenylamino]-methylene}-1,3-dihydro-indol-2-one], the half-inhibitory concentration (IC50) stood at 590 nM.
The same measure, in the same setting: in the case of `O=C1Nc2cccc(F)c2C1=CNc1ccc(CCCCN2CCCCC2)cc1` [Example 321, 4-Fluoro-3-{[4-(4-piperidin-1-yl-butyl)-phenylamino]-methylene}-1,3-dihydro-indol-2-one] it was 1180 nM.
Take `Cc1ccc(NC=C2C(=O)Nc3ccccc32)cc1F` [Example 10, 3-[(3-Fluoro-4-methyl-phenylamino)-methylene]-1,3-dihydro-indol-2-one]: the IC50 is at least 10000 nM.
On to `O=C1Nc2ccccc2C1=CNc1ccccc1` [Example 1, 3-Phenylaminomethylene-1,3-dihydro-indol-2-one], for which the IC50 is 4050 nM.
